# According to patent US20250268948A1, “COMPOSITIONS AND METHODS FOR TREATING POST ACUTE SEQUELAE OF SARS-COV-2 INFECTION (LONG COVID)” (priority 2022, published 2025):
# Like-named read-outs stand apart in the source and are kept apart here.
# How the values were obtained:
# Oct 3/4 = test: qPCR gene expression analysis in human MSCs; format: cell-based; conditions: for Oct 3/4 expression increase: 250 μM VPA, 500 nM curcumin, compared to beta-actin, FIG. 13
# Protocol: (§1) Beta actin was measured as a house-keeping gene. […] Gene expression was quantified by determining the amount of gene-specific DNA/total cDNA. Data are mean+/−SD of 4 replicates.
# (§2) Native human umbilical cord-derived MSCs (Vitro Biopharma Cat. No. SC00A1) were expanded from cryopreservation in a T-25 TC-coated flasks (BD Falcon, Cat. No. 353108) in MSC-GRO™ low serum, complete medium (Vitro Biopharma Cat. No. SC00BI). Cells were subcultured and counted on a Beckerman-Coulter Z2 particle counter (range 10 μm-30 μm). Cells were plated at 10,000/cm^2 a TC-coated Greiner Bio-One T75 flask and maintained in MSC-GRO™ serum free, complete medium (Vitro Biopharma Cat. No. SC00B3) in a reduced 02 environment (1% O2, 5% CO2, 94% N2) at 37° C. in a humidified chamber. The MSCs were treated continuously for up to 2 weeks. Cultures were fed every three days. Cells were harvested using ACCUTASE™ (Innovative Cell Technologies Inc., Cat No AT-104) and centrifuged (450×g) for 7 minutes. Cell supernatant was aspirated off and cells were resuspended in 1 mL PBS and counted on a Beckerman-Coulter Z2 particle counter (range 10 μm-30 μm). Total RNA was extracted using RNeasy Mini Kit (Qiagen Cat. No. 74104). RNA was quantified using an absorbance measurement at 260 nm. RNA was converted to cDNA using Quantitect Reverse Transcription Kit (Qiagen Cat. No. 205310) in a thermocycler. RNA was incubated in the gDNA elimination reaction for 2 minutes at 42° C. then incubated in the reverse-transcription master mix for 15 minutes at 42° C. Immediately after, it was incubated at 95° C. for 3 minutes for inactivation. cDNA was sent to an outside lab (CU-Anschutz Metabolic Laboratory) for q-PCR to detect relative or absolute gene expression levels. cDNA was diluted 1:5 and iTaq Universal Supermix fluorescent probe (BioRad Cat. No. 172-5120) used to detect the threshold cycle (Ct) during PCR. Dilution factors and cDNA concentrations were calculated into recorded values then normalized to untreated hMSCs (Vitro Biopharma Cat. No. SC00A1).
# (§3) Gene expression was quantified by determining the amount of gene-specific DNA/total cDNA. Data are mean+/−S.D. of 4 replicates.
# (§4) Native human umbilical cord-derived MSCs (Vitro Biopharma Cat. No. SCOOA1) were expanded from cryopreservation in a T-25 TC-coated flasks (BD Falcon, Cat. No. 353108) in MSC-GRO™ low serum, complete medium (Vitro Biopharma Cat. No. SC00B1). Cells were subcultured and counted on a Beckerman-Coulter Z2 particle counter (range 10 μm-30 μm). […] The MSCs were treated continuously for up to 2 weeks. Cultures were fed every three days. Cells were harvested using ACCUTASE™ (Innovative Cell Technologies Inc., Cat No AT-104) and centrifuged (450×g) for 7 minutes. Cell supernatant was aspirated off and cells were resuspended in 1 mL PBS and counted on a Beckerman-Coulter Z2 particle counter (range 10 μm-30 μm).
# (§5) Total RNA was extracted using RNeasy Mini Kit (Qiagen Cat. No. 74104). RNA was quantified using an absorbance measurement at 260 nm. RNA was converted to cDNA using Quantitect Reverse Transcription Kit (Qiagen Cat. No. 205310) in a thermocycler. RNA was incubated in the DNA elimination reaction for 2 minutes at 42° C. then incubated in the reverse-transcription master mix for 15 minutes at 42° C. Immediately after, it was incubated at 95° C. for 3 minutes for inactivation. cDNA was sent to an outside lab (CU-Anschutz Metabolic Laboratory) for q-PCR to detect relative or absolute gene expression levels. cDNA was diluted 1:5 and iTaq Universal Supermix fluorescent probe (BioRad Cat. No. 172-5120) used to detect the threshold cycle (Ct) during PCR. Dilution factors and cDNA concentrations were calculated into recorded values then normalized to untreated hMSCs (Vitro Biopharma Cat. No. SC00A1).
# FGF-21 = test: qPCR gene expression analysis in human MSCs; format: cell-based; conditions: for FGF-21 expression increase: 250 μM VPA, 500 nM curcumin, up to 2 weeks, FIG. 13
# Protocol: as §1, §2, §3, §4, §5
# human MSCs = test: Stem cell migration assay (percent closure of cell-free zone); conditions: for EC50: Homo sapiens; for effect on MSC migration induced by curcumin and quercetin / effect on MSC migration induced by curcumin and resveratrol: 20 micromolar AMD3100 / 15 micromolar GM6001; for effect on MSC migration induced by curcumin and quercetin: FIG. 14; for effect on MSC migration induced by curcumin and resveratrol: FIG. 15
# Protocol: FIG. 1 is a microphotograph depicting cell migration using fluorescent readout and cell tracker green as a fluorescent marker of human UC-MSCs. […] The EC50 was determined as a measure of effectiveness of activating agents. […] An initial analysis of the cell free zone using Image J software was used to screen concentrations of activating agents for dose-response determination in further experiments.
# The cell migration assays described above were set up as follows: One million cells/cell line were resuspended in 10 mL MSC-GRO™ serum free, quiescent medium (Vitro Biopharma Cat. No. SC00B17) containing […] mitomycin C (Sigma, Cat. No. M4287) to inhibit proliferation and incubated for 2 hours at room temperature with end-to-end agitation at 7 RPM. In some experiments, curcumin was used at 1 μM to block proliferation. Cells were centrifuged (450×g) for 7 minutes, washed with phosphate buffered saline (PBS) and then resuspended in 1 mL MSC-GRO™ low serum, complete 20 medium (Vitro Biopharma Cat. No. SC00B1) and plated at 25,000 cells/well in black 96 well, TC-coated cell culture plates, (ThermoScientific, Cat. No. 165305) containing cell seed-stoppers (Platypus, Cat. No. CMAUFL4) to form a cell free zone at the center of the well and incubated in 5% CO2, 1% O2, 94% N2 at 37° C. in a humidified chamber for 24 hrs. Plates used for culture of NSCs, were first treated with 10 μg/mL fibronectin (Sigma, Cat. No. F0556) for 2 hours at 37° C. Following washout with PBS (3×), cell seed stoppers were inserted, NSCs were plated at 25,000/well and incubated in 5% CO2, 1% O2, 94% N2 at 37° C. in a humidified chamber for 48 hrs. For studies of the effects of CXCR4 and MMP-9 inhibition, following 24 hours of cell culture, appropriate wells were dosed with 15 μM GM6001 and 20 μM AMD3100 for 6 hours. Cells were washed once with PBS then incubated in serum free, MSC-GRO™ (Vitro Biopharma Cat. No. SC00B17) containing 5 μM Cell Tracker Green CMFDA (Molecular Probes, Cat. No. C7025) at 37° C. for 30 minutes. The wells were then washed with serum free, MSC-Gro™ (Vitro Biopharma Cat. No. SC00B17) and incubated for 30 minutes at 37° C. Cells were washed once with PBS and this was replaced with MSC-GRO™ serum free, quiescent medium (Vitro Biopharma Cat. No. SC00B1I7) containing different concentrations of activating agents. […] A TOPSEAL™ (PerkinElmer, Cat. No. 6050195) covered the plate for live-cell imaging in a BioTek Cytation3 Imaging Reader. […] The gas phase throughout the acquisition of kinetic data was 5% O2, 5% CO2 with the balance nitrogen maintained by a BioTek CO2/O2 gas controller. Images were saved as TIFF files to calculate percent closure using imaging data.
# Hsp70 = test: qPCR gene expression analysis in human MSCs; format: cell-based; conditions: for Hsp70 expression increase: 250 μM VPA, 500 nM curcumin, up to 2 weeks, FIG. 13
# Protocol: as §3, §4, §5
# CXCR4 = test: qPCR gene expression analysis in human MSCs; format: cell-based; conditions: for CXCR4 expression increase: 250 μM VPA, 500 nM curcumin, up to 2 weeks, FIG. 13
# Protocol: as §3, §4, §5
# [1] = tested on: CAFs, primary fibroblasts and MSCs; test: Cell-based proliferation assay (Presto Blue); design: species or system human; conditions: 5 day exposure; FIG. 8
# Protocol: (§6) The effects of fibroblast growth factor 2 (FGF-2), lithium, and VPA on stem cell proliferation were then investigated, using an assay based on Presto Blue, a fluorescent marker of cellular reduction. FIG. 8 is a line graph representation illustrating proliferation of different cell lines induced by increasing concentrations of FGF-b (FGF-2) after a 5 day exposure. Relative fluorescent units were measured using a FITC filter on a Modulus Microplate Reader and plotted as a function of FGF-2. The data were modeled by sigmoidal curve fitting to calculate EC50 values. […] Proliferation of these mesenchymal cells was stimulated by recombinant human FGF-2 with EC50 values in the range of 3 ng/mL to 6 ng/mL with maximal proliferative responses at about 10 ng/mL.
# SIRT-1 = test: qPCR gene expression analysis in human MSCs; format: cell-based; conditions: up to 2 weeks; for SIRT-1 expression increase: 250 μM VPA, 500 nM curcumin, FIG. 13
# Protocol: as §1, §2, §3, §4, §5
# human fibroblast = conditions: read-out: EC50, human fibroblast migration induced by substance P, prior study; suspension culture system; Parenti et al. 1996; cited from earlier work
# MSCs = test: Cell-based proliferation assay (Presto Blue); conditions: Homo sapiens
# Protocol: as §6
# [2] = curcumin at 500 nM, statistically significant
molecule,measurement,setting,value
COc1cc(/C=C/C(=O)CC(=O)/C=C/c2ccc(O)c(OC)c2)ccc1O [curcumin],Oct 3/4 expression increase,Oct 3/4; up to 2 weeks,about 20 fold
same,Oct 3/4 expression increase compared to untreated cells,Oct 3/4; [2],at least 10 fold
same,FGF-21 expression increase compared to untreated cells,FGF-21; [2],at least 20 fold
same,concentration at which curcumin blocked migration by apparent toxicity,"human MSCs; 36-hour run, FIG. 4",greater than 1 μM
same,"estimated LD50 (apparent toxicity, reduced cell number)","human MSCs; 36-hour run, FIG. 4",3 µM
same,EC50,"human MSCs; 36 h, read-out: apparent EC50, curcumin-induced migration",0.25 µM
same,Hsp70 expression increase compared to untreated cells,Hsp70; [2],at least 20 fold
same,CXCR-4 expression increase compared to untreated cells,CXCR4; [2],at least 20 fold
FGF-2: recombinant human fibroblast growth factor 2,concentration of maximal proliferative responses,[1],about 10 ng/mL
CC(/C=C/C(=O)NO)=C\[C@@H](C)C(=O)c1ccc(N(C)C)cc1 [TSA],SIRT-1 expression increase,SIRT-1,significantly less effective
same,Oct 3/4 expression increase,Oct 3/4; up to 2 weeks,less expression activation
same,FGF-21 expression increase,FGF-21,lower levels
same,Hsp70 expression increase,Hsp70,lower levels
same,CXCR4 expression increase,CXCR4,lower levels
CCCCC(=O)O [valeric acid],SIRT-1 expression increase,SIRT-1,significantly less effective
same,Oct 3/4 expression increase,Oct 3/4; up to 2 weeks,less expression activation
same,FGF-21 expression increase,FGF-21,lower levels
same,Hsp70 expression increase,Hsp70,lower levels
same,CXCR4 expression increase,CXCR4,lower levels
c1cc(CN2CCCNCCNCCCNCC2)ccc1CN1CCCNCCNCCCNCC1 [AMD3100],effect on VPA-induced CB-MSC migration,"human MSCs; 20 μM AMD3100, CXCR-4 inhibitor, FIG. 7",blocked the VPA-induced CB-MSC migration
same,effect on MSC migration induced by curcumin and quercetin,human MSCs,blocked MSC migration
same,effect on MSC migration induced by curcumin and resveratrol,human MSCs,blocked MSC migration
CCCC(=O)[O-].[Na+] [Na butyrate],SIRT-1 expression increase,SIRT-1,significantly less effective
same,Oct 3/4 expression increase,Oct 3/4; up to 2 weeks,less expression activation
same,FGF-21 expression increase,FGF-21,lower levels
same,Hsp70 expression increase,Hsp70,lower levels
same,CXCR4 expression increase,CXCR4,lower levels
CNC(=O)[C@H](Cc1c[nH]c2ccccc12)NC(=O)[C@@H](CC(=O)NO)CC(C)C [GM6001],effect on lithium induced CB-MSC migration,"human MSCs; 15 μM GM6001, MMP-9 inhibitor, FIG. 7",blocked lithium induced CB-MSCs
same,effect on MSC migration induced by curcumin and quercetin,human MSCs,blocked MSC migration
same,effect on MSC migration induced by curcumin and resveratrol,human MSCs,blocked MSC migration
CSCC[C@H](NC(=O)[C@H](CC(C)C)NC(=O)CNC(=O)[C@H](Cc1ccccc1)NC(=O)[C@H](Cc1ccccc1)NC(=O)[C@H](CCC(N)=O)NC(=O)[C@H](CCC(N)=O)NC(=O)[C@@H]1CCCN1C(=O)[C@H](CCCCN)NC(=O)[C@@H]1CCCN1C(=O)[C@@H](N)CCCNC(=N)N)C(N)=O [substance P],MSC migration into cell-free zone,"human MSCs; 3.7 nM substance P, 24 hours, human UC-MSCs, FIG. 1",induced MSC migration into the cell-free center of the well
same,migration (percent closure) dose-response,"human MSCs; CB-MSCs, 0 to 18.5 nM, 24-hour live cell analysis, FIG. 2",migration increased in a dose-dependent manner
same,EC50,human fibroblast,0.0022 µM
"CCCC(CCC)C(=O)O [VPA, valproic acid]",SIRT-1 expression increase vs untreated MSC,"SIRT-1; 31.25 μM VPA, 200 μM lithium, FIG. 11",~300 fold
same,Oct 3/4 expression increase vs untreated human MSCs,"Oct 3/4; 31.25 μM VPA, 200 μM lithium, up to 2 weeks, FIG. 11",about 20 fold
same,Oct 3/4 expression increase,Oct 3/4; up to 2 weeks,about 20 fold
same,EC50,"human MSCs; read-out: EC50, migration, increasing VPA in 200 μM lithium, MSCs, FIG. 6",36 µM
same,concentration of maximum closure,"human MSCs; VPA alone, FIG. 5",100 µM
same,EC50,"MSCs; 120 h, increasing VPA in 200 μM lithium, MSCs, 5 day exposure, FIG. 10, read-out: EC50, proliferation",39 µM
same,EC50,"MSCs; in the presence of 200 μM lithium, MSCs and NSCs, range over migration and proliferation assays, read-out: VPA concentration 50% effective in inducing cell proliferation and migration",35 to 39 µM
same,EC50,"MSCs; in the presence of 200 μM lithium, MSCs and NSCs, read-out: VPA concentration 50% effective in inducing cell proliferation and migration, mean",37 µM
